{"source": "patent US20160051594A1", "about": "“Therapeutic Compositions and Uses Thereof” (MANUKA HEALTH NEW ZEALAND LIMITED, priority 2013, published 2016)", "key": {"[1]": {"tested_on": "human colorectal adenocarcinoma cells (DLD-1)", "test": "MTT proliferation assay, DLD-1 cells (Examples 2 and 3)", "format": "cell-based", "method": "Test samples shown below in Table 3 were assessed for their ability to modulate the viability and proliferation of human colorectal adenocarcinoma cells (DLD-1) as assessed by the MTT assay. A positive control, 5-Fluorouracil (5-FU) was included in addition to an unsupplemented cell control (negative control) in the study. All samples were normalized to 200 μg/ml total solids.\nThus, DLD-1 colon cancer cells were exposed to: • a tincture originally containing 25% solids by mass propolis which then diluted in the test solution to give 200 μg/ml total solids. The tincture was used to manufacture the cyclodextrin-encapsulated propolis samples. • Cyclodextrin propolis (γ-cyclodextrin encapsulated with 25% propolis tincture), CD1 from Table 2 in Example 1 • Cyclodextrin propolis+CAPE (γ-cyclodextrin encapsulated 25% propolis tincture with added CAPE to double the concentration of CAPE relative to the tincture), CD2 from Table 2 in Example 1 • γ-cyclodextrin alone (CAVAMAX W8 food gamma cyclodextrin) • 5-flurorouracil at 7.50 ng/ml as a positive control\nAll cyclodextrin-encapsulated samples and γ-cyclodextrin alone were assayed on a per weight of sample, and so contain at most 50 μg/ml total solids as propolis.\nHuman colorectal adenocarcinoma epithelial cell lines were revived from cryostorage and cultured in the presence of the test and reference samples. The culture conditions for the cells were those described by the supplier of the cells (ATCC). An MTT assay was then performed on the cultures to determine the effect of the samples on the cell proliferation.\n• 1. The human colorectal adenocarcinoma cells (DLD-1) obtained from the American Type Culture Collection USA were revived from cryostorage. • 2. Following initial propagation using the media described above (see Medium Preparation), the culture was subcultured using the trypsin-EDTA as follows. The media was removed and 5 ml of the trypsin-EDTA solution added and incubated at 37° C. for 5 min or until all the cells had detached. The trypsin was neutralised by adding an equal volume of DMEM medium and the culture centrifuged at 300 g (1200 rpm) for 5 min at 4° C. • 3. The supernatant was decanted and the cell pellets resuspended in medium DMEM, FBS (10%), penicillin (100 units/ml), streptomycin (100 μg/ml). The cells were cultured at 37° C. in 5% CO2/95% air. • 4. After reaching confluence, the cells were detached using trypsin-EDTA and centrifuged as described in 2 above. • 5. The supernatants were discarded and the cells resuspended in DMEM and supplements as described in 3 above at 7.5×10^4 cells per ml. A total volume of 23 mls of the cell suspension was required. • 6. Into each well of three 96 well plates, 180 μl of the cells ([…]) or medium was added as indicated in the plate layout below. The plates were incubated at 5% CO2/95% air at 37° C. for 8 h which was sufficient to allow the cells to strongly adhere. • 7. To each well, 20 μl of each of the test samples or positive control was added as indicated in the diagrams above. To the wells labelled ‘medium’ or ‘cells only’, 20 μl of 15% ETOH/HBSS was added. Each sample was assessed in replicates of 6, while the controls on all three plates were assessed in replicates of 9 (combined triplicates) • 8. The total volume in each well was 200 μl. • 9. The plates were incubated at 37° C. in 5% CO2/95% air for 19 h.\n• 1. On completion of the incubation, 20 μl of MTT working solution (5 mg/ml) was added to all wells and incubated for 2 hr at 37° C. in 5% CO2/95% air. • 2. 100 μl of MTT lysis buffer was then added and the plates incubated for 3 hr at 37° C. on a shaker in 5% CO2/95% air, followed by pipetting to break up and dissolve the crystals until fully solubilized. The plates were centrifuged at 1200 rpm for 10 minutes to pelletize any remaining insoluble material. From each well 200 μl aliquots were transferred to fresh 96 well plates. The plates were read by a VersaMax microplate reader at 570 nm. • 3. […]"}, "[2]": {"tested_on": "HCT-116-R cells (butyrate resistant, derived from HCT-116)", "test": "Apoptotic assay (PE Annexin V, flow cytometry), butyrate-resistant HCT-116-R", "format": "cell-based, human", "conditions": "for % Apoptosis: HCT-116-R, 50 hours", "method": "(§1) The human colorectal cell line HCT-116 was obtained from the American Type Culture Collection (Rockville, Md.). The butyrate resistant cell line was derived from HCT-116 by culturing the parental cells in increasing concentrations of butyrate as previously described in Bordonaro […]. The activation of beta-catenin by Wnt signaling mediates the effects of histone deacetylase inhibitors. Exp Cell Res. 2007; 313:1652-66 (including references therein). Colorectal cells were grown in alpha-MEM medium with 10% fetal bovine serum and antibiotics. The concentration of CAPE in the propolis-cyclodextrin complex CD1 was 1.79 μg/100 μg propolis solid encapsulated in the cyclodextrin, or 0.41 μg/100 μg cyclodextrin complex. Stock solutions were prepared in dimethyl sulfoxide, except for butyrate, which was dissolved in water at 1 M concentration. […] All cells (floating and attached) were harvested and stained for apoptotic and necrotic markers using a PE Annexin V Apoptosis Detection Kit I (BD Biosciences, #559763). Flow cytometry analyses were carried out with FACS Aria II and DiVa software. […] All data are presented as mean±standard deviation from at least three sets of independent experiments. Student T-test analysis was used to determine the significance of statistical differences. Differences were considered significant at P<0.05."}, "[3]": {"tested_on": "human colorectal cancer cell line HCT-116", "test": "Apoptotic assay (PE Annexin V, flow cytometry), HCT-116", "format": "cell-based", "conditions": "for % Apoptosis: 50 hours", "method": "as §1"}, "[4]": {"tested_on": "human oesophageal squamous cell carcinoma cell line (KYSE-30)", "test": "Gastro-intestinal cancer anti-proliferative MTT assay, KYSE-30 (Examples 5-9)", "format": "cell-based", "conditions": "Example 9", "method": "Sample CD5 γ-cyclodextrin as prepared in Example 1 was assessed for its ability to modulate the viability and proliferation of human colorectal adenocarcinoma cells (DLD-1); human colon cancer cell line (HCT-116); human gastric carcinoma cell line (NCI-N87); and human oesophageal squamous cell carcinoma cell line (KYSE-30) as assessed by the MTT assay. The positive control, 5-fluorouracil (5-FU) was included at three concentrations; in addition to an unsupplemented cell control as a negative control in the study. [Do we include test compounds for comparison?.\nThe four human gastrointestinal carcinoma cell lines were revived from cryostorage and cultured in the presence of the test and reference samples. An MTT assay was then performed on the cultures to determine the effect of the samples on the cell viability and proliferation.\nThe test sample, and all other test samples in Examples 5-8 were dissolved in 15% ethanol/Hanks Balanced Salt Solution (ETOH)/HBSS to a concentration of 2 mg/mL solids. In the assay the final concentration of the samples was 200 μg/ml with a final EtOH concentration of 1.5%.\n• 1. Human colorectal adenocarcinoma cells (ATCC CCI-221, DLD-1)(ATCC, Bethesda, Md., USA) • 2. Human gastric carcinoma cells (ATCC CRL-5822, NCI-N87)(ATCC, Bethesda, Md., USA) • 3. Human oesophageal squamous cell carcinoma (ECACC, KYSE-30)(Sigma Aldrich, Auckland, NZ) • 4. Human colon carcinoma cells (ECACC HCT-116)(Sigma Aldrich, Auckland, NZ) • 5. Penicillin-streptomycin solution: 10000 units/ml penicillin, 10 mg/ml streptomycin in 0.9% NaCl (Sigma Cat #P-0781). Stored at −20° C. • 6. For DLD-1 cells: DMEM culture medium (Invitrogen Cat #12100-046). Stored at 4° C. • 7. For NCI-N87 cells: RPMI-1640 medium modified to contain 2 mM L-glutamine, 10 mM HEPES, 1 mM sodium pyruvate, 4500 mg/L glucose, and 1500 mg/L sodium bicarbonate (Sigma R6504). Stored at 4° C. • 8. For KYSE-410 cells: RPMI-1640 medium modified to contain 2 mM L-glutamine (Sigma R6504). Stored at 4° C. • 9. For HCT-116 cells: McCoy's 5A medium modified to contain 2 mM L-glutamine (Sigma M48792). Stored at 4° C. • 10. […]"}}, "data": [{"compound": "O=C(/C=C/c1ccc(O)c(O)c1)OCCc1ccccc1", "note": "[CAPE, caffeic acid phenethyl ester]", "values": [{"measurement": "Mean (OD 570 nm)", "setting": "[1]; DLD-1, 200 μg/ml", "result": 0.0777}, {"measurement": "% Apoptosis", "setting": "[2]; 1.2 ug/ml", "result": 9.7, "unit": "%"}, {"measurement": "apoptosis relative to the negative control", "setting": "[2]; HCT-R, CAPE 1.2 ug/ml alone", "result": "did not undergo significant apoptosis"}, {"measurement": "% Apoptosis", "setting": "[3]; HCT-116, 1.2 ug/ml", "result": 18.3, "unit": "%"}, {"measurement": "apoptosis relative to the negative control", "setting": "[3]; HCT-116, CAPE 1.2 ug/ml", "result": "no significant increase in apoptosis"}]}, {"compound": "CCCC(=O)O", "note": "[butyrate]", "values": [{"measurement": "% Apoptosis", "setting": "[2]; 5 mM", "result": 11.2, "unit": "%"}, {"measurement": "% Apoptosis", "setting": "[3]; HCT-116, 5 mM", "result": 57.5, "unit": "%"}, {"measurement": "apoptosis relative to cells only", "setting": "[3]; HCT-116, butyrate 5 mM", "result": 35, "unit": "%"}]}, {"compound": "O=c1c(O)c(-c2ccccc2)oc2cc(O)cc(O)c12", "note": "[Galangin]", "values": [{"measurement": "Mean (OD 570 nm)", "setting": "[1]; DLD-1, 200 μg/ml", "result": 0.1411}]}, {"compound": "OC[C@H]1O[C@@H]2O[C@H]3[C@H](O)[C@@H](O)[C@@H](O[C@H]4[C@H](O)[C@@H](O)[C@@H](O[C@H]5[C@H](O)[C@@H](O)[C@@H](O[C@H]6[C@H](O)[C@@H](O)[C@@H](O[C@H]7[C@H](O)[C@@H](O)[C@@H](O[C@H]8[C@H](O)[C@@H](O)[C@@H](O[C@H]9[C@H](O)[C@@H](O)[C@@H](O[C@H]1[C@H](O)[C@H]2O)O[C@@H]9CO)O[C@@H]8CO)O[C@@H]7CO)O[C@@H]6CO)O[C@@H]5CO)O[C@@H]4CO)O[C@@H]3CO", "note": "[CAVAMAX W8 Food gamma Cyclodextrin, gamma-cyclodextrin]", "values": [{"measurement": "% inhibition", "setting": "[1]; DLD-1, 200 μg/ml", "result": 9.11, "unit": "%"}, {"measurement": "Mean (OD 570 nm)", "setting": "[1]; DLD-1, 200 μg/ml", "result": 0.6405}, {"measurement": "inhibition at 200 µg/mL", "setting": "[1]; Homo sapiens, DLD-1, DLD-1, 200 μg/ml", "result": 9.1, "unit": "%"}, {"measurement": "inhibition at 200 µg/mL", "setting": "[4]; Homo sapiens, KYSE-30, KYSE-30, 200 μg/ml", "result": 8.8, "unit": "%"}, {"measurement": "Mean (OD 570 nm)", "setting": "[4]; KYSE-30, 200 μg/ml", "result": 0.3056}, {"measurement": "% inhibition", "setting": "[4]; KYSE-30, 200 μg/ml, listed as Gamma-CD", "result": 8.85, "unit": "%"}]}, {"compound": "O=c1cc(-c2ccccc2)oc2cc(O)cc(O)c12", "note": "[Chrysin]", "values": [{"measurement": "Mean (OD 570 nm)", "setting": "[1]; DLD-1, 200 μg/ml", "result": 0.1233}]}]}
